Experimental data reported in US7723368B2, “Amino-5-[4-(difluoromethoxy)phenyl]-5-phenylimidazolone compounds for the inhibition of beta-secretase” (Wyeth LLC, priority 2007, dated 2010).

How the values were obtained:
human BACE1 = human BACE1 (Homo sapiens, UniProt P56817); assay: BACE1 fluorescent kinetic assay (cleavage of peptide substrate WABC-6); type: biochemical; conditions: Activity Table, Examples 1-108; 10 nM enzyme, 25 μM substrate WABC-6, pH 4.5, room temperature
Method: Evaluation of BACE1 Binding Affinity of Test Compounds
Fluorescent Kinetic Assays
Dilution and mixing steps: total reaction volume: 100 μL
100 μM substrate dilution in 1×PBS was prepared, and
Fluorescence Readings: Readings at λex 320 nm and λem 420 nm are taken every 40 sec for 30 min at room temperature and the linear slope for substrate cleavage rate (vi) determined.

Sequence of human BACE1 (P56817 46-501): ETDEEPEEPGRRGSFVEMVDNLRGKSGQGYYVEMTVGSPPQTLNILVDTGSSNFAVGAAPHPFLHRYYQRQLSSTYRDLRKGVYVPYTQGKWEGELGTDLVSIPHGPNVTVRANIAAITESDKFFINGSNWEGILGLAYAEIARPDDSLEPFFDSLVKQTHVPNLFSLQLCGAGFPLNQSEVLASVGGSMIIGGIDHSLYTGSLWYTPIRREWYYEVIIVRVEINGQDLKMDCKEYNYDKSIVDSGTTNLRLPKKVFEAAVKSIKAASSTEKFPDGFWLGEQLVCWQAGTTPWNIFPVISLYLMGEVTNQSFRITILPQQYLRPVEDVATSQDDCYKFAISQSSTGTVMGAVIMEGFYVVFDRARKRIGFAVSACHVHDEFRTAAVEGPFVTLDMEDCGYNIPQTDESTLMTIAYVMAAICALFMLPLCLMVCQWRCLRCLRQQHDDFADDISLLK

SMILES | melting point [°C] | IC50 (human BACE1) [nM]
CN1C(=O)C(c2ccc(OC(F)F)cc2)(c2ccc(F)c(CF)c2)N=C1N (stereo not drawn) [Example 17, 2-Amino-5-(4-difluoromethoxy-phenyl)-5-(4-fluoro-3-fluoromethyl-phenyl)-3-methyl-3,5-dihydro-imidazol-4-one] | 70 to 73 | 110 to 1000
Cc1ccccc1C1(c2ccc(OC(F)F)cc2)N=C(N)N(C)C1=O (stereo not drawn) [Example 18, 2-Amino-5-(4-difluoromethoxy-phenyl)-3-methyl-5-o-tolyl-3,5-dihydro-imidazol-4-one] | 85 to 90 | > 1000
CN1C(=O)C(c2ccc(OC(F)F)cc2)(c2ccc(F)c(CCCC#N)c2)N=C1N (stereo not drawn) [Example 14, 4-{5-[2-Amino-4-(4-difluoromethoxy-phenyl)-1-methyl-5-oxo-4,5-dihydro-1H-imidazol-4-yl]-2-fluoro-phenyl}-butyronitrile] | 65 to 70 | < 100
COc1ccc(C2(c3ccc(OC(F)F)cc3)N=C(N)N(C)C2=O)cc1C#N (stereo not drawn) [Example 16, 5-[2-Amino-4-(4-difluoromethoxy-phenyl)-1-methyl-5-oxo-4,5-dihydro-1H-imidazol-4-yl]-2-methoxy-benzonitrile] | 104 to 105 | > 1000
Cc1cc(C2(c3ccc(OC(F)F)cc3)N=C(N)N(C)C2=O)ccc1F (stereo not drawn) [Example 15, 2-Amino-5-(4-difluoromethoxy-phenyl)-5-(4-fluoro-3-methyl-phenyl)-3-methyl-3,5-dihydro-imidazol-4-one] | 70 | 110 to 1000
CN1C(=O)C(c2ccc(OC(F)F)cc2)(c2cccc(OCCCF)c2)N=C1N (stereo not drawn) [Example 82, 2-Amino-5-[4-(difluoromethoxy)phenyl]-5-[3-(3-fluoropropox-1-yl)phenyl]-3-methyl-3,5-dihydro-4H-imidazol-4-one] | 161 to 162 | < 100
C=CCC(F)c1cccc(C2(c3ccc(OC(F)F)cc3)N=C(N)N(C)C2=O)c1 (stereo not drawn) [Example 57, 2-amino-5-[4-(difluoromethoxy)phenyl]-5-[3-(1-fluorobut-3-en-1-yl)phenyl]-3-methyl-3,5-dihydro-4H-imidazol-4-one] | 49 to 51 | 110 to 1000
C=CCCC(F)c1cc(C2(c3ccc(OC(F)F)cc3)N=C(N)N(C)C2=O)ccc1F (stereo not drawn) [Example 13, 2-Amino-5-(4-difluoromethoxy-phenyl)-5-[4-fluoro-3-(1-fluoro-pent-4-enyl)-phenyl]-3-methyl-3,5-dihydro-imidazol-4-one] | 50 to 55 | 110 to 1000
CN1C(=O)C(c2ccc(OC(F)F)cc2)(c2cccc(CCCCC#N)c2)N=C1N (stereo not drawn) [Example 83, 5-(3-{2-Amino-4-[4-(difluoromethoxy)phenyl]-1-methyl-5-oxo-4,5-dihydro-1H-imidazol-4-yl}phenyl)pentanenitrile] | 65 | < 100
CN1C(=O)C(c2ccc(OC(F)F)cc2)(c2ccc(F)c(C#CCCCCl)c2)N=C1N (stereo not drawn) [Example 20A, 2-amino-5-[3-(5-chloropent-1-yn-1-yl)-4-fluorophenyl]-5-[4-(difluoromethoxy)phenyl]-3-methyl-3,5-dihydro-4H-imidazol-4-one] |  | < 100
C=CCCC(F)c1cccc(C2(c3ccc(OC(F)F)cc3)N=C(N)N(C)C2=O)c1 (stereo not drawn) [Example 12, 2-Amino-5-(4-difluoromethoxy-phenyl)-5-[3-(1-fluoro-pent-4-enyl)-phenyl]-3-methyl-3,5-dihydro-imidazol-4-one] | 50 to 55 | < 100
C=CC#Cc1cc(C2(c3ccc(OC(F)F)cc3)N=C(N)N(C)C2=O)ccc1F (stereo not drawn) [Example 87, 2-amino-4-(3-(but-3-en-1-ynyl)-4-fluorophenyl)-4-(4-(difluoromethoxy)phenyl)-1-methyl-1H-imidazol-5(4H)-one] |  | < 100
CC(C)CNc1cccc(C2(c3ccc(OC(F)F)cc3)N=C(N)N(C)C2=O)c1 (stereo not drawn) [Example 45] |  | < 100
C=CCCOc1cccc([C@]2(c3ccc(OC(F)F)cc3)N=C(N)N(C)C2=O)c1 [Example 10B, (5S)-2-amino-5-[3-(but-3-en-1-yloxy)phenyl]-5-[4-(difluoromethoxy)phenyl]-3-methyl-3,5-dihydro-4H-imidazol-4-one] |  | 110 to 1000
